Laboratory results reported in article PMC6007452 (Journal of Insect Science, 2018).

T1: HaTreh-1 (soluble trehalase) (Helicoverpa armigera, UniProt A0A6B8YU37)
T1 sequence (A0A6B8YU37 24-571): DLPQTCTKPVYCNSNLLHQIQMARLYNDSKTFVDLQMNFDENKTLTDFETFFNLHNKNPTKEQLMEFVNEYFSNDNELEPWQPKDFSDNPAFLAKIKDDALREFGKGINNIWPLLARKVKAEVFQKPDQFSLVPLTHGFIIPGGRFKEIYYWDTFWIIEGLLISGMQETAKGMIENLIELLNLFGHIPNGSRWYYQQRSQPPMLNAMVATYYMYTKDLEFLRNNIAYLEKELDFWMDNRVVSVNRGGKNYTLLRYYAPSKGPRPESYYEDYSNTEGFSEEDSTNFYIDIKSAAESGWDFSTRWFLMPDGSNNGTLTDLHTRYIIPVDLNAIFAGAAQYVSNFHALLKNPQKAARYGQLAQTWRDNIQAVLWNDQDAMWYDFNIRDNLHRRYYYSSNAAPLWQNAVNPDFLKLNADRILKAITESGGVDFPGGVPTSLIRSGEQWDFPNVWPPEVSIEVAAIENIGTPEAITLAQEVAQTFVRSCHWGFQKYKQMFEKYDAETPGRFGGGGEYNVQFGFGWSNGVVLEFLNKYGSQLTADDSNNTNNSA


Tests used:
[1] = biological target: T1, HaTreh-1 (soluble trehalase); format: biochemical
[2] = substrate: OC[C@H]1O[C@H](O[C@H]2O[C@H](CO)[C@@H](O)[C@H](O)[C@H]2O)[C@H](O)[C@@H](O)[C@@H]1O; assay: enzyme kinetics; format: biochemical, Helicoverpa armigera

Molecule | Ki [1] [µM] | Km [2] [mM]
O[C@H]1[C@H](O)[C@@H](O)CN2CC[C@H](O)[C@H]12 [castanospermine] | 6.7 | –
HaTreh-1 (soluble trehalase) (Helicoverpa armigera) (protein) DLPQTCTKPVYCNSNLLHQIQMARLYNDSKTFVDLQMNFDENKTLTDFETFFNLHNKNPTKEQLMEFVNEYFSNDNELEPWQPKDFSDNPAFLAKIKDDALREFGKGINNIWPLLARKVKAEVFQKPDQFSLVPLTHGFIIPGGRFKEIYYWDTFWIIEGLLISGMQETAKGMIENLIELLNLFGHIPNGSRWYYQQRSQPPMLNAMVATYYMYTKDLEFLRNNIAYLEKELDFWMDNRVVSVNRGGKNYTLLRYYAPSKGPRPESYYEDYSNTEGFSEEDSTNFYIDIKSAAESGWDFSTRWFLMPDGSNNGTLTDLHTRYIIPVDLNAIFAGAAQYVSNFHALLKNPQKAARYGQLAQTWRDNIQAVLWNDQDAMWYDFNIRDNLHRRYYYSSNAAPLWQNAVNPDFLKLNADRILKAITESGGVDFPGGVPTSLIRSGEQWDFPNVWPPEVSIEVAAIENIGTPEAITLAQEVAQTFVRSCHWGFQKYKQMFEKYDAETPGRFGGGGEYNVQFGFGWSNGVVLEFLNKYGSQLTADDSNNTNNSA | – | 72.8
